Experiments:
Type in all cases: cell-based
AsPC-1 = assay: Pancreatic cancer cell proliferation inhibitory activity, AsPC-1; conditions: Homo sapiens, ASPC1; 72 hours, Cell Counting Kit-8, relative IC50
Protocol: (§1) Experiments were performed using three types of pancreatic cancer cell lines to measure the cell proliferation inhibitory ability of the compounds of the present invention. AsPC-1, MIA-PaCa2-Control, and Gemcitabine resistant-MIA-PaCa2 cells were dispensed into a 96-well plate at 100 uL of cell suspension per well using DMEM medium containing 10 % FBS and 1 % PS, followed by incubation in a cell incubator at 37 °C and 5 % CO2. The next day, the compound of Example 8 dissolved and diluted in DMSO across 10 concentration ranges and a DMSO control group were treated on the cells for 72 hours. After completion of the compound treatment, 10 µL of Cell Counting Kit-8 (Dojindo) reagent was added to each well of the 96-well plate, followed by incubation for 2 hours. […] were measured after inserting the 96-well plate into an Envision plate reader […]. Relative IC50 values were calculated by fitting a dose-response curve using Graphpad PRISM software.
(§2) The pancreatic cancer cell proliferation inhibitory activities of the Example compounds measured by the method described above were evaluated according to the following criteria, and the results are presented in Table 18.

NCI-H358 cells = assay: Lung cancer cell proliferation inhibitory activity, NCI-H358; conditions: Homo sapiens, 72 hours, Cell Counting Kit-8, relative IC50
Protocol: Experiments were performed using three types of lung cancer cell lines to measure the cell proliferation inhibitory ability of the compounds of the present invention. NCI-H23 and NCI-H358 cells were dispensed into a 96-well plate at 100 µL of cell suspension per well using RPM11640 medium containing 10 % FBS and 1 % PS, followed by incubation in a cell incubator at 37 °C and 5 % CO2. A427 cells were dispensed into a 96-well plate at 100 µL of cell suspension per well using DMEM medium containing 10 % FBS and 1 % PS, followed by incubation in a cell incubator at 37 °C and 5 % CO2. The next day, each Example compound (such as Example 8) dissolved and diluted in DMSO across 10 concentration ranges and a DMSO control group were treated on the cells for 72 hours. After completion of the compound treatment, 10 µL of Cell Counting Kit-8 (Dojindo) reagent was added to each well of the 96-well plate, followed by incubation for 2 hours. After inserting the 96-well plate into an Envision plate reader […], luminescence signals were measured. Relative IC50 values were calculated by fitting a dose-response curve using Graphpad PRISM software.
The lung cancer cell proliferation inhibitory activities of the Example compounds measured by the method described above were evaluated according to the following criteria, and the results are presented in Table 17.

DLD-1 = assay: Colorectal cancer cell proliferation inhibitory activity, DLD-1; conditions: Homo sapiens, 72 hours, Cell Counting Kit-8, relative IC50
Protocol: (§3) Experiments were performed using seven types of colorectal cancer cell lines to measure the cell proliferation inhibitory ability of each Example compound. DLD-1, LoVo, SW620, SW480, HCT116, HCT15, and HT29 cells were dispensed into a 96-well plate at 100 µL of cell suspension per well using RPMI1640 medium containing 10 % FBS and 1 % PS, followed by incubation in a cell incubator at 37 °C and 5 % CO2. The next day, each Example compound dissolved and diluted in DMSO across 10 concentration ranges and a DMSO control group were treated on the cells for 72 hours. After completion of the compound treatment, 10 µL of Cell Counting Kit-8 (Dojindo) reagent was added to each well of the 96-well plate, followed by incubation for 2 hours. […] were measured after inserting the 96-well plate into an Envision plate reader […]. Relative IC50 values were calculated by fitting a dose-response curve using Graphpad PRISM software.
The colorectal cancer cell proliferation inhibitory activities of the Example compounds measured by the method described above were evaluated according to the following criteria, and the results are presented in Table 19.

HS746T cells = assay: Gastric cancer cell proliferation inhibitory activity (Cell Counting Kit-8), HS746T; conditions: Homo sapiens, 72 hours, Cell Counting Kit-8, relative IC50
Protocol: as §3, with “six” for “seven”, “gastric” for “colorectal”, “NCI-N87, SNU601, KATO-III, MKN1,” for “DLD-1, LoVo, SW620, SW480, HCT116, HCT15,”, “AGS” for “HT29”, “RPMI1640 medium containing 10 % FBS and 1 % PS, followed by incubation in a cell incubator at 37 °C and 5 % CO2. HS746T cells were dispensed into a 96-well plate at 100 µL of cell suspension per well using DMEM” for “RPMI1640”
(§4) The gastric cancer cell proliferation inhibitory activities of the Example compounds measured by the method described above were evaluated according to the following criteria, and the results are presented in Table 20.

KATO-III = assay: Gastric cancer cell proliferation inhibitory activity (Cell Counting Kit-8), KATO-III; conditions: Homo sapiens, 72 hours, Cell Counting Kit-8, relative IC50
Protocol: as §3, with “six” for “seven”, “gastric” for “colorectal”, “NCI-N87, SNU601, KATO-III, MKN1,” for “DLD-1, LoVo, SW620, SW480, HCT116, HCT15,”, “AGS” for “HT29”, “RPMI1640 medium containing 10 % FBS and 1 % PS, followed by incubation in a cell incubator at 37 °C and 5 % CO2. HS746T cells were dispensed into a 96-well plate at 100 µL of cell suspension per well using DMEM” for “RPMI1640”
as §4

[1] = tested on: Gemcitabine resistant-MIA-PaCa2 cells; assay: Pancreatic cancer cell proliferation inhibitory activity, Gemcitabine resistant-MIA-PaCa2; conditions: 72 hours, Cell Counting Kit-8, relative IC50
Protocol: as §1, §2

MIA-PaCa2-Control = assay: Pancreatic cancer cell proliferation inhibitory activity, MIA-PaCa2-Control; conditions: 72 hours, Cell Counting Kit-8, relative IC50
Protocol: as §1, §2

NCI-N87 = assay: Gastric cancer cell proliferation inhibitory activity (Cell Counting Kit-8), NCI-N87; conditions: Homo sapiens, 72 hours, Cell Counting Kit-8, relative IC50
Protocol: as §3, with “six” for “seven”, “gastric” for “colorectal”, “NCI-N87, SNU601, KATO-III, MKN1,” for “DLD-1, LoVo, SW620, SW480, HCT116, HCT15,”, “AGS” for “HT29”, “RPMI1640 medium containing 10 % FBS and 1 % PS, followed by incubation in a cell incubator at 37 °C and 5 % CO2. HS746T cells were dispensed into a 96-well plate at 100 µL of cell suspension per well using DMEM” for “RPMI1640”
as §4

Measured: IC50

CN1CCN(c2cc(NCc3nc4ccc(F)c(F)c4[nH]3)c3ncc(C(F)(F)F)n3n2)CC1 [Example 8, N-((6,7-difluoro-1H-benzo[d]imidazol-2-yl)methyl)-6-(4-methylpiperazin-1-yl)-3-(trifluoromethyl)imidazo[1,2-b]pyridazin-8-amine]
≤ 200 nM: all assays above
